Experiments:
[1] = Knoop microhardness repair of acid-etched bovine enamel blocks after treatment and remineralization; details: 1% citric acid etch 10 min, 40 microliters for ten minutes at room temperature, Remineralization Solution overnight at 37° C.
Method: Bovine enamel blocks are obtained from sound bovine incisors without defects. The labial surface of the bovine teeth is cut to provide enamel specimens of about 3×3×2 mm in size. The enamel layer is about 1 mm thick and the dentin left in the specimen is about 1 mm thick.
Etched enamel samples are prepared by treatment with 1% aqueous citric acid (pH 3.6) for 10 minutes, followed by rinsing with deionized water. Three bovine enamel blocks are prepared, one for the test solution, one for a positive control solution, and one for a negative control solution.
Etched bovine enamel samples are treated with 40 microliters of the polyelectrolyte solution A, with sodium fluoride solution, or with water, for ten minutes at room temperature. […]
Knoop Hardness (KHN) is a measure of hardness of a material calculated by measuring the indentation produced by a diamond tip that is pressed onto the surface of a sample. Using a calibrated microscope, the area of the impression can be determined, and from the area of the indentation (D) in […], and the applied load (F) in kilograms force, the Knoop Hardness is calculated as: KHN=14.229(F/D^2). […]
KHN is determined using Knoop microhardness tester. […] A value for Percentage of Hardness Repair (% HR) is calculated according to the following formula: […]

[2] = Single-block enamel repair evaluation, solution samples (Keyence microscope step height, light microscopy, SEM); design: species or system bovine
Method: The left half of the block (“sound”) is covered using an acid-resistant nail polish, which is then allowed to air dry. The right half of the block (“damaged” and “repaired”) is then treated with 1% citric acid (pH 3.6) for ten minutes to etch the surface. After the treatment, the surface of the block is rinsed with deionized water. The top right corner of the block (“damaged”) is then covered with the same acid-resistant nail polish and air dried. The test formulation is then applied to the bottom right corner of the block (“repaired”), for example, for a ten-minute treatment, followed by rinsing with deionized water. Following the treatment, the enamel blocks are immersed in a Remineralization Solution (0.2205 g/L CaCl2·2H2O, 0.1225 g/L KH2PO4, 9.6915 g/L KCl and 4.766 g/L HEPEs buffer, pH adjusted to 7 with NaOH) overnight at 37° C., and the process repeated for 2-4 days (the blocks immersed daily in fresh remineralization solution). Following this, the blocks are removed, rinsed with deionized water and air dried. The nail polish covers are then removed using acetone solvent, and the surface of the enamel blocks is visualized, for example, by light microscopy, confocal laser scanning microscopy, scanning probe microscopy, or scanning electron microscopy.
A Keyence microscope is used to capture the surface morphology and to measure the step height of the treated samples. A Phenom ProX Desktop scanning electron microscope is used to observe the repaired enamel crystals. Bovine enable blocks are treated with either water, the sodium fluoride solution, or the 10 mg/mL ePL+0.06 mg/mL malic acid solution (Solution A above).

SMILES: [F-].[Na+] [NaF Control, sodium fluoride]
- % HR (Percentage of Hardness Repair) [1]: 41.0%
- % HR (Percentage of Hardness Repair) ([1]; listed as sodium fluoride): did not reach half of original hardness levels
- % Repair (Step height) ([2]; 1% citric acid etch 10 min, ten-minute treatment, remineralization repeated 2-4 days): 65.3%
- enamel surface gaps, scanning electron microscopy ([2]; gaps from acid etching): some healing
- surface elevation, 3-D Keyence photomicrographs (FIG. 3) ([2]; height vs sound enamel side): do not restore the enamel to the original height
- surface morphology of repaired side, light microscopy (FIG. 2) ([2]; repaired vs damaged side of same block): a clear interface between “damaged” and “repaired” sides is observed

Reference: US20240201173A1, “Enamel Repair Visualization and Quantification” (Colgate-Palmolive Company, priority 2022, published 2024)
